According to US20260041649A1, “ANTI-INFLAMMATORY AGENT” (WATANABE OYSTER LABORATORY, CO., LTD., priority 2023, published 2026):

Key:
[1] = system: RAW264.7 cells cultured with LPS; assay: Cell proliferation of RAW264.7 cells cultured with LPS; type: cell-based, mouse; conditions: DHMBA 1 or 10 μM, LPS 100 ng/ml, 3 days
Description: In FIG. 5A, to examine the effect on cell proliferation, RAW264.7 cells (1×10^5/ml/well) were cultured for 3 days in a DMEM culture medium containing 10% FBS, 1% P/S, and 1% fungizone in the control group (1% ethanol as final concentration) with or without LPS (1, 10, 50, 100, 500 ng/ml). In FIG. 5B, cells (1×10^5/ml per well) were cultured for 3 days in a DMEM culture medium containing 10% FBS, 1% P/S, and 1% fungizone in the DHMBA-treated group (1 or 10 μM) with or without LPS (100 ng/ml). In FIG. 5C, to examine the effect on cell death, cells that had reached subconfluence after 3 days of culture were cultured for another 48 hours in the control group (1% ethanol) with or without LPS (1, 10, 50, 100, or 500 ng/ml). In FIG. 5D, cells that had reached subconfluence were cultured for another 48 hours in the DHMBA-treated group (1 or 10 μM) with or without LPS (100 ng/ml). After the culture, the number of cells attached to the dish was counted. Data are presented as the mean±SD from a total of 8 wells in 2 plates using different cell preparations. *: Significant difference (p<0.01) versus the controls without LPS (gray bars) (FIG. 5A and FIG. 5C) or without DHMBA (gray bars) (FIG. 5B and FIG. 5D). […]
The number of viable cells was counted under a microscope (Olympus MTV-3) using a hemocytometer (Sigma-Aldrich) and a cell counter (H-102P, Line Seiki Co., Ltd., Tokyo, Japan).

[2] = system: RAW264.7 cells stimulated with LPS; assay: Measurement of osteoclast formation (TRACP-positive MNCs); type: cell-based, mouse
Description: Cells (1×10^5 cells/1 ml per well in a 24-well plate) were cultured for 3 days in DMEM containing 10% FBS, 1% P/S, and 1% fungizone in the control group (1% ethanol as final concentration) and in the DHMBA-treated group (0.1, 1, 10, or 100 μM) with or without LPS (100 ng/ml). The old culture medium was replaced with fresh conditioned culture medium (0.5 ml) containing LPS and/or DHMBA, and the cells were cultured for another 3 days (FIG. 9A). Cells (1×10^5 cells/1 ml per well in a 24-well plate) were cultured for 3 days in the above DMEM culture medium with LPS (100 ng/ml) but without DHMBA. […] TRACP-positive multinucleated cells (MNCs) (with 3 or more nuclei) were counted as osteoclast-like cells under a microscope (40× magnification). […]
RAW264.7 cells (1×10^5 cells/1 ml per well in a 24-well plate) were cultured for 3 days in a DMEM culture medium containing 10% FBS, 1% P/S, and 1% fungizone in the control group (1% ethanol in the culture medium as final concentration) and the LPS-treated group (100 ng/ml in the culture medium) with or without DHMBA (0.1, 1, 10, or 100 μM). […] TRACP-positive multinucleated cells (MNCs) having three or more nuclei were counted as osteoclast-like cells under a microscope (40× magnification) (Olympus MTV-3; Olympus Corp., Tokyo, Japan). […]

COc1c(O)cc(CO)cc1O [DHMBA, 3,5-dihydroxy-4-methoxybenzyl alcohol]
suppressed: proliferation of RAW264.7 cells in the presence of LPS [1] | LPS-enhanced osteoclast formation, late stage ([2]; 3 days LPS 100 ng/ml alone, then 3 days LPS plus DHMBA 0.1, 1, 10 or 100 μM) | LPS-enhanced osteoclast formation ([2]; LPS 100 ng/ml and DHMBA 0.1, 1, 10 or 100 μM together for 6 days)
